{"source": "patent EP4523686A1", "about": "“A SIGMA-1 RECEPTOR POSITIVE MODULATOR FOR ITS USE IN THE PREVENTION AND THE TREATMENT OF A PATHOLOGY” (priority 2023, dated 2025)", "key": {"5-HT3 receptor": {"biological_target": "T1, 5-HT3 receptor (Homo sapiens, UniProt P46098)", "T1 construct": "CEREP", "T1 sequence (P46098 24-478)": "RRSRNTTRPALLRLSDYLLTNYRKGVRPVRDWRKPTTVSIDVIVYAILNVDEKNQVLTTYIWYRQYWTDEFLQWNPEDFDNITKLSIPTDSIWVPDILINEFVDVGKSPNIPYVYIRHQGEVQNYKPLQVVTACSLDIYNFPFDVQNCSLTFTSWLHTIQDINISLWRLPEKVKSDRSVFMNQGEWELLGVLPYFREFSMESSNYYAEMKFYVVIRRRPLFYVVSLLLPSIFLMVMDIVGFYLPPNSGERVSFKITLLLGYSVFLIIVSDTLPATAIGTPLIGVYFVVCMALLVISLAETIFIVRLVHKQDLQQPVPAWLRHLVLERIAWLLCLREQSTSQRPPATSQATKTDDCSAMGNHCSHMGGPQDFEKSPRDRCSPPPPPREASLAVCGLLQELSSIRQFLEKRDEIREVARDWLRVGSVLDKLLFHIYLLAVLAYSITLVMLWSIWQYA", "assay": "CEREP in vitro binding assay (pharmacological profiling)", "procedure": "(§1) Table 1 represents pharmacological profiling of convolamine which was tested at […] and 1 µM in in vitro binding assays designed with appropriate reference compounds in duplicates at CEREP facility."}, "CB2 receptors": {"biological_target": "T2, CB2 receptors (Homo sapiens, UniProt P34972)", "T2 construct": "CEREP", "T2 sequence (P34972 whole entry)": "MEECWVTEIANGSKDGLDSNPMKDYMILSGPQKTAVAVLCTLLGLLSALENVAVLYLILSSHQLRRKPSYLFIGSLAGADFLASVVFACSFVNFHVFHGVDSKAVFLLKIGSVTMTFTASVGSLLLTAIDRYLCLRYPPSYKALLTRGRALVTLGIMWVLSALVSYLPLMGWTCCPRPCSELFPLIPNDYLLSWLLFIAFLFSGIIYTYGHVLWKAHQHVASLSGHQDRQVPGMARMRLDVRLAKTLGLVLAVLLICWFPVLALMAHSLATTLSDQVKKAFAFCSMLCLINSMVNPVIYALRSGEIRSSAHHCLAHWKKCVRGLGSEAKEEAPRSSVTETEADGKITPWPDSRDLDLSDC", "assay": "CEREP in vitro binding assay (pharmacological profiling)", "conditions": "at micromolar concentrations; range given jointly for CB2, Kv, 5-HT3", "procedure": "as §1"}, "5-HT1B receptor": {"biological_target": "T3, 5-HT1B receptor (Homo sapiens, UniProt P28222)", "T3 construct": "CEREP", "T3 sequence (P28222 whole entry)": "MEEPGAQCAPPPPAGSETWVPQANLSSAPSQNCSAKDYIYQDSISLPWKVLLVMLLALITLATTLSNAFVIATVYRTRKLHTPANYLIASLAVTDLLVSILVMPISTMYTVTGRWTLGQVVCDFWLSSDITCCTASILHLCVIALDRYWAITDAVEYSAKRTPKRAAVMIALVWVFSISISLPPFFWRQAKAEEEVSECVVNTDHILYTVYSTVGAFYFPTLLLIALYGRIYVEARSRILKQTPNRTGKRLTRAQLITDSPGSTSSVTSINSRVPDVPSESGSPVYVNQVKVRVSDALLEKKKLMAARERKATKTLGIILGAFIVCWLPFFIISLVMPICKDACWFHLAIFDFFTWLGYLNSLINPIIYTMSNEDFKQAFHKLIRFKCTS", "assay": "CEREP in vitro binding assay (pharmacological profiling)"}, "Wfs1^ΔExon8 mice": {"test_system": "Wfs1^ΔExon8 mice", "assay": "Step-through passive avoidance, Wolfram syndrome mouse model", "assay_type": "in vivo", "conditions": "IP 20 min before training, retention 24 h after training", "excerpt": "(§2) The apparatus is a two-compartments (15 × 20 × 15 cm high) box with one illuminated with white polyvinylchloride walls and the other darkened with black polyvinylchloride walls and a grid floor. A guillotine door separates each compartment. A 60 W lamp positioned 40 cm above the apparatus lights up the white compartment during the experiment. Scrambled foot shocks (0.3 mA for 3 s) could be delivered to the grid floor using a shock generator scrambler (Lafayette Instruments, Lafayette, USA). The guillotine door was initially closed during the training session. Each mouse was placed into the white compartment. After 5 s, the door was raised. When the mouse entered the darkened compartment and placed all its paws on the grid floor, the door is closed and the foot shocks delivered for 3 s. The step-through latency (STL-Tg), that is, the latency spent to enter the darkened compartment, and the number of vocalizations were recorded. The retention test was carried out 24 h after training. Each mouse was placed again into the white compartment. After 5 s, the door was raised. The step-through latency (STL-R) was recorded up to 300 s (Meunier et al., 2006, 2013; Villard et al., 2009, 2011). An exclusion criteria was STL-Tg and STL-R < 10 s. Animals showing these readouts are excluded from the calculations. Attrition is routinely < 5% in this test."}, "[1]": {"test_system": "Aβ25-35-induced learning impairments in mice", "assay": "Spontaneous alternation in the Y-maze, Aβ25-35 model of Alzheimer's disease", "assay_type": "in vivo", "conditions": "0.3-3 mg/kg IP, all doses, single administration on day 1, test on day 8", "procedure": "(§3) Amyloid-β[25-35] peptide (Aβ25-35) was from Eurogentec (Angers, France). It was solubilized in distilled water at 3 mg/ml and stored at -20°C until use. Before injection, the peptide was incubated at 37°C for 4 days, allowing oligomerization. Control injection was performed with vehicle solution (distilled water), and intracerebroventricularly (ICV) injections were done as described previously (Maurice et al., 1996, 2019).\nThe Y-maze is made of grey polyvinylchloride. Each arm is 40 cm long, 13 cm high, 3 cm wide at the bottom, 10 cm wide at the top, and converging at an equal angle. Each mouse was placed at the end of one arm and allowed to move freely through the maze during an 8 min session. The series of arm entries, including possible returns into the same arm, were checked visually. An alternation is defined as entries into all three arms on consecutive occasions. The number of maximum alternations is therefore the total number of arm entries minus two and the percentage of alternation was calculated as (actual alternations / maximum alternations) × 100 (Maurice et al., 1996; Meunier et al., 2006, 2013). Exclusion criteria are locomotion < 10 or percentage of alternation < 25% or > 90%. Animals showing these readouts are excluded from the calculations. Attrition is routinely < 5% in this test. […]"}, "[2]": {"test_system": "Aβ25-35-induced learning impairments in mice", "assay": "Step-through passive avoidance, Aβ25-35 model of Alzheimer's disease", "assay_type": "in vivo", "conditions": "0.3-3 mg/kg IP, single administration on day 1", "procedure": "as §3\nas §2, with “When the mouse entered the darkened compartment and placed all its paws on the grid floor, the door is closed and the foot shocks delivered for 3 s.” left out, “The retention test was carried out 24 h after training. Each mouse was placed again into the white compartment. After 5 s, the door was raised.” left out, “An exclusion criteria was STL-Tg and STL-R < 10 s.” left out, “Attrition is routinely < 5% in this test.” left out"}}, "data": [{"smiles": "COc1ccc(C(=O)OC2CC3CCC(C2)N3C)cc1OC", "note": "(centres unmarked) [Convolamine, (8-methyl-8-azabicyclo[3.2.1]octan-3-yl) 3,4-dimethoxybenzoate]", "values": [{"measurement": "inhibition at 0.1 µM", "setting": "5-HT3 receptor; 0.1 µM, duplicates", "value": 16.2, "unit": "%"}, {"measurement": "inhibition at 1 µM", "setting": "5-HT3 receptor; 1 µM, duplicates", "value": 61.7, "unit": "%"}, {"measurement": "inhibition of binding on the 5-HT3 receptor (in words)", "setting": "5-HT3 receptor; at 1 µM", "value": "partial inhibition"}, {"measurement": "inhibitions of the selective radiotracer", "setting": "5-HT3 receptor; at micromolar concentrations, range given jointly for CB2, Kv, 5-HT3", "value": "20-60%"}, {"measurement": "inhibitions of the selective radiotracer", "setting": "CB2 receptors", "value": "20-60%"}, {"measurement": "stimulation of specific binding", "setting": "5-HT1B receptor", "value": "30-40%"}, {"measurement": "inhibition at 0.1 µM", "setting": "5-HT1B receptor; 0.1 µM, duplicates, negative = stimulation of binding", "value": -33, "unit": "%"}, {"measurement": "inhibition at 1 µM", "setting": "5-HT1B receptor; 1 µM, duplicates, negative = stimulation of binding", "value": -38.6, "unit": "%"}, {"measurement": "step-through latency deficit during retention (in words)", "setting": "Wfs1^ΔExon8 mice", "value": "attenuated the deficit"}, {"measurement": "Aβ25-35-induced deficit in spontaneous alternation (in words)", "setting": "[1]", "value": "significantly attenuated"}, {"measurement": "Aβ25-35-induced deficit in the passive avoidance test (in words)", "setting": "[2]", "value": "not effective"}]}]}
